In US20220362239A1, “PHARMACEUTICAL COMPOSITION AND METHOD FOR TREATMENT OF ACUTE RESPIRATORY DISTRESS SYNDROME (ARDS) IN CORONAVIRUS DISEASE (COVID-19)” (PHARMAZZ, INC., priority 2021, published 2022):

How the values were obtained:
COVID-19 patients [1] = assay: centhaquine (Lyfaquin) in COVID-19 patients; assay type: in vivo, human; conditions: for slope of SpO2/FiO2 versus age of patient: basal slope −1.062
Method: The effect of centhaquine (Lyfaquin®) was determined COVID-19 patients. A significant improvement in oxygen saturation (SpO2) of COVID-19 patients by intravenous administration of centhaquine in the dose of 0.01 mg/kg was observed (FIG. 2). An improvement of SpO2 improved by 12.40 units within 2 hours of administration of centhaquine and further treatment with centhaquine led to an improvement of SpO2 by about 20 units.
We also determined the effect of age on the improvement in ratio of SpO2 and FiO2 (SpO2/FiO2) after administration of centhaquine (FIG. 3). […] Centhaquine (Lyfaquin®) improved SpO2/FiO2 in COVID-19 patients.
WHO Ordinal Scale was used to determine whether centhaquine (Lyfaquin®) improved the outcome of patients with COVID-19 (FIG. 5).

[2] = test system: patients with hypovolemic shock; assay: phase III randomized, blinded, multicenter study in hypovolemic shock (NCT04045327); assay type: in vivo, human
From the text: ARDS in Shock Patients (N=105): Acute Respiratory Distress Syndrome (ARDS) was compared between day 1 (before resuscitation) and day 3 of resuscitation. In control patients receiving standard treatment the difference between means was 0.04839±0.05696 (P=0.4023). On the other hand, in centhaquine treated group the ARDS difference between means was 0.1065±0.04464 (P=0.0202).
MODS in Shock Patients (N=105): Multiple Organ Dysfunction Score (MODS) was compared between day 3 and day 7 of resuscitation. There was no improvement in MODS in the control group and the difference between means was 0.00±0.2697 (P>0.999), whereas in centhaquine group the difference between means was 0.9091±0.1964 (P=0.0001).

[3] = test system: patients with hypovolemic shock; assay: clinical phase II study in hypovolemic shock (NCT04056065); assay type: in vivo, human
healthy human subjects = assay: Phase I safety study (NCT02408731); assay type: in vivo
From the text: Centhaquine has been evaluated for its safety, sensitivity and toxicity in various species for single and multiple doses and acute as well as chronic exposure (33).
Centhaquine has been evaluated for its safety, sensitivity and toxicity in various species for single and multiple doses and acute as well as chronic exposure (33). […] Safety and efficacy of centhaquine is established (Phase I, phase II and phase III clinical studies)

swine model of shock = conditions: in vivo; cited from earlier work
[4] = test system: models of hypovolemic shock; conditions: in vivo; cited from earlier work
[5] = test system: swine model of in hospital cardiac arrest; conditions: in vivo; cited from earlier work
[6] = test system: patients with hypovolemic shock; assay: combined / metanalysis of phase II and III trials in hypovolemic shock
From the text: In a 105-patient randomized, blinded, multicenter study (CTRI/2019/01/017196; NCT04045327) a total of 34 (22 male and 12 female) patients in control and 68 (41 male and 27 female) patients in centhaquine groups completed the study. […] In total 180 human subjects have been studied (combined phase I, II and III), out of which 155 were patients with hypovolemic shock.

SARS-CoV-2 = conditions: cited from earlier work
[7] = test system: SARS-CoV-2 viral load in nasopharyngeal swabs; conditions: 600 mg daily; day 6 post inclusion compared to controls; cited from earlier work
COVID-19 patients [8] = conditions: 13 patients; inhalation 10 mg; cited from earlier work

For `Cc1cccc(N2CCN(CCc3ccc4ccccc4n3)CC2)c1` [centhaquine], the “slope of SpO2/FiO2 versus age of patient” value (COVID-19 patients [1]; at 2 hours of treatment) was −0.5905, the “slope of SpO2/FiO2 versus age of patient” value (COVID-19 patients [1]; at 4 hours of treatment) was −0.2718 and the “improvement in WHO Ordinal Scale, mean difference” value (COVID-19 patients [1]; at 72 hours of resuscitation, N=10, p=0.0169) was 0.7444. The “patients who did not need oxygen therapy” value (COVID-19 patients [1]; at 72 hours of treatment) was “Four out of 10”, the “improvement of oxygen saturation (SpO2)” value (COVID-19 patients [1]; further treatment with centhaquine) was “about 20 units” and the “improvement of SpO2/FiO2” value (COVID-19 patients [1]; in 4 hours) was 41.42 units. The “improvement of SpO2/FiO2” value (COVID-19 patients [1]; within 2 hours) was 34.48 units, the “improvement of oxygen saturation (SpO2)” value (COVID-19 patients [1]; within 2 hours of intravenous centhaquine 0.01 mg/kg) was 12.40 units and the “ARDS difference between means” value ([2]; day 1 (before resuscitation) vs day 3 of resuscitation, P=0.0202) was 0.1065±0.04464. For the same molecule, the blood lactate levels ([2]; day 3 of resuscitation, compared to control, P=0.046) was “significantly lower”, the “MODS difference between means” value ([2]; day 3 vs day 7 of resuscitation, P=0.0001) was 0.9091±0.1964 and the “adverse events related to centhaquine” value ([2]; phase III) was “NO adverse events”. The 28-day all-cause mortality ([2]; versus 11.76% with standard treatment, P=0.0742) was 2.94%, the mortality ([3]; human, in vivo) was “reduced mortality” and the use of vasopressors ([3]; human, in vivo) was “reduction in use of vasopressors”. For the same molecule, the base-deficit ([3]; p<0.0001) was “highly significant efficacy”, the blood pressure ([3]; p<0.0001) was “highly significant efficacy” and the lactate levels ([3]; p=0.0012) was “highly significant efficacy”. The “adverse events related to centhaquine” value ([3]; phase II) was “NO adverse events”, the safety and tolerability (healthy human subjects) was “safe and well tolerated” and the “Horowitz index (PaO2/FiO2 ratio)” value (swine model of shock) was “improved”. For the same molecule, the pulmonary edema (swine model of shock) was “significantly reduced”, the survival [4] was “improves survival” and the “efficacy as resuscitative agent” value [5] was “highly effective”. The mortality ([6]; 155 patients with hypovolemic shock, versus 9.68% with standard treatment) was 2.15%, the mortality odds ratio ([6]; 155 patients, 95% CI 1.162-24.18, P=0.0190) was 4.875 and the ARDS scores ([6]; N=155) was “significantly improved”. The MODS score ([6]; N=155) was “significantly improved”, the mortality ([6]; metanalysis of phase II and III trials, versus 10.71%) was 2.20% and the mortality odds ratio ([6]; metanalysis of phase II and III, 95% CI 1.27-26.50, p=0.0271) was 5.340.

In the case of `CCN(CC)CCCC(C)Nc1ccnc2cc(Cl)ccc12` (stereo not shown) [chloroquine], the “inhibition of SARS-CoV-2 in vitro” value (SARS-CoV-2) is listed as “effectively inhibit”.

For `CCN(CCO)CCCC(C)Nc1ccnc2cc(Cl)ccc12` (stereo not shown) [hydroxychloroquine], the viral carriage [7] is given as “significant reduction”.

B1: plasminogen: plasminogen supplementation given by inhalation, 10 mg dissolved in 2 ml sterile water (protein, UniProt P00747 20-810, looked up)
Plasminogen: EPLDDYVNTQGASLFSVTKKQLGAGSIEECAAKCEEDEEFTCRAFQYHSKEQQCVIMAENRKSSIIIRMRDVVLFEKKVYLSECKTGNGKNYRGTMSKTKNGITCQKWSSTSPHRPRFSPATHPSEGLEENYCRNPDNDPQGPWCYTTDPEKRYDYCDILECEEECMHCSGENYDGKISKTMSGLECQAWDSQSPHAHGYIPSKFPNKNLKKNYCRNPDRELRPWCFTTDPNKRWELCDIPRCTTPPPSSGPTYQCLKGTGENYRGNVAVTVSGHTCQHWSAQTPHTHNRTPENFPCKNLDENYCRNPDGKRAPWCHTTNSQVRWEYCKIPSCDSSPVSTEQLAPTAPPELTPVVQDCYHGDGQSYRGTSSTTTTGKKCQSWSSMTPHRHQKTPENYPNAGLTMNYCRNPDADKGPWCFTTDPSVRWEYCNLKKCSGTEASVVAPPPVVLLPDVETPSEEDCMFGNGKGYRGKRATTVTGTPCQDWAAQEPHRHSIFTPETNPRAGLEKNYCRNPDGDVGGPWCYTTNPRKLYDYCDVPQCAAPSFDCGKPQVEPKKCPGRVVGGCVAHPHSWPWQVSLRTRFGMHFCGGTLISPEWVLTAAHCLEKSPRPSSYKVILGAHQEVNLEPHVQEIEVSRLFLEPTRKDIALLKLSSPAVITDKVIPACLPSPNYVVADRTECFITGWGETQGTFGAGLLKEAQLPVIENKVCNRYEFLNGRVQSTELCAGHLAGGTDSCQGDSGGPLVCFEKDKYILQGVTSWGLGCARPNKPGVYVRVSRFVTWIEGVMRNN
For B1, the “patients with improved oxygen saturation” value (COVID-19 patients [8]) is listed as 6 patients and the “patients with improvement in density of 'ground glass' opacity” value (COVID-19 patients [8]) is listed as 5 patients.
